These results are taken from publication PMC9352670 (2022).

Common to all, as to test: microscale thermophoresis
On the technique in general: Microscale thermophoresis detects binding through changes in fluorescence in a small temperature gradient.

The test system of assay [1] is Dm-CCS-5 (DNA, aptamer, HFNAP: side-chain on 5' nucleobase of each coding trinucleotide, positions 19,22,25,...,61 (codon key Figure 1B)) GAAAGCAGGACTGGAGATTTCTACTATCTCCAGCCGTTCCACCACTGATGCCCTTAGTATCCTCAGACCGAACTAGAGCTT
The conditions noted are these: 5 mM KCl, 1 mM MgCl2, 1 mM CaCl2 added; HBS-P+ buffer, 25 °C.

In assay [2] the test system is Dm-HS-1 TCT ∆ s.c. (DNA, aptamer, no side-chain at 37 (codon 7 TCT); others as HFNAP: fluorophenyl at 19; allylamine at 22, 25; alcohol at 28, 34, 49; phenol at 31, 46; cyclopentyl at 40; cyclopropyl at 43, 58; imidazole at 52, 55, 61) GAAAGCAGGACTGGAGATCGATTCTGGTGCTGTTGATCTCCGCCATTGTGCTCCTACCCTTCACAGACCGAACTAGAGCTT
The settings on record: 5 mM KCl, 1 mM MgCl2, 1 mM CaCl2 added to HBS-P+; HBS-P+ buffer, 25 °C.

Assay [3] has as its system Dm-CCS-4 (DNA, aptamer, HFNAP: side-chain on 5' nucleobase of each coding trinucleotide, positions 19,22,25,...,61 (codon key Figure 1B)) GAAAGCAGGACTGGAGATCGCTGACAGCGATCCCGACTGTGATCTTGCTGCTGCCTCTCGCGCCAGACCGAACTAGAGCTT
The conditions noted are these: 5 mM KCl, 1 mM MgCl2, 1 mM CaCl2 added; HBS-P+ buffer, 25 °C.

Assay [4] relates to Dm-HS-4 (DNA, aptamer, HFNAP: side-chain on 5' nucleobase of each coding trinucleotide, positions 19,22,25,...,61 (codon key Figure 1B)) GAAAGCAGGACTGGAGATCGATTCTGGTGCTGTTGATCTCCGCCATTGTGCTCCTACCCTTCGCAGACCGAACTAGAGCTT
The settings on record: 5 mM KCl, 1 mM MgCl2, 1 mM CaCl2 added; HBS-P+ buffer, 25 °C.

The subject of assay [5] is Dm-HS-1 TCC ∆ s.c. (DNA, aptamer, no side-chain at 52 (codon 12 TCC); others as HFNAP: fluorophenyl at 19; allylamine at 22, 25, 37; alcohol at 28, 34, 49; phenol at 31, 46; cyclopentyl at 40; cyclopropyl at 43, 58; imidazole at 55, 61) GAAAGCAGGACTGGAGATCGATTCTGGTGCTGTTGATCTCCGCCATTGTGCTCCTACCCTTCACAGACCGAACTAGAGCTT
The conditions noted are these: 5 mM KCl, 1 mM MgCl2, 1 mM CaCl2 added to HBS-P+; HBS-P+ buffer, 25 °C.

Assay [6] relates to Dm-LS-3 (DNA, aptamer, HFNAP: side-chain on 5' nucleobase of each coding trinucleotide, positions 19,22,25,...,61 (codon key Figure 1B)) GAAAGCAGGACTGGAGATTCGCATCGCTACTCCTCCTTGCCGTCCCACCGCCCACTGCTACCTCAGACCGAACTAGAGCTT
The settings on record: 5 mM KCl, 1 mM MgCl2, 1 mM CaCl2 added; HBS-P+ buffer, 25 °C.

Assay [7] concerns Dm-HS-1 TGC ∆ s.c. (DNA, aptamer, no side-chain at 28 and 49 (codons 4 and 11 TGC, alcohol 2x); others as HFNAP: fluorophenyl at 19; allylamine at 22, 25, 37; alcohol at 34; phenol at 31, 46; cyclopentyl at 40; cyclopropyl at 43, 58; imidazole at 52, 55, 61) GAAAGCAGGACTGGAGATCGATTCTGGTGCTGTTGATCTCCGCCATTGTGCTCCTACCCTTCACAGACCGAACTAGAGCTT
The settings on record: 5 mM KCl, 1 mM MgCl2, 1 mM CaCl2 added to HBS-P+; HBS-P+ buffer, 25 °C.

Assay [8] concerns Dm-HS-1 TCA ∆ s.c. (DNA, aptamer, no side-chain at 61 (codon 15 TCA); others as HFNAP: fluorophenyl at 19; allylamine at 22, 25, 37; alcohol at 28, 34, 49; phenol at 31, 46; cyclopentyl at 40; cyclopropyl at 43, 58; imidazole at 52, 55) GAAAGCAGGACTGGAGATCGATTCTGGTGCTGTTGATCTCCGCCATTGTGCTCCTACCCTTCACAGACCGAACTAGAGCTT
The conditions noted are these: 5 mM KCl, 1 mM MgCl2, 1 mM CaCl2 added to HBS-P+; HBS-P+ buffer, 25 °C.

Assay [9] concerns Dm-CVAE-without-selection-2 (DNA, aptamer, HFNAP: side-chain on 5' nucleobase of each coding trinucleotide, positions 19,22,25,...,61 (codon key Figure 1B)) GAAAGCAGGACTGGAGATTCGTTACCGCTGTTGCTCTCTTCTCAGTTGTGCTCCTTTTCCCCCCAGACCGAACTAGAGCTT
The conditions noted are these: 5 mM KCl, 1 mM MgCl2, 1 mM CaCl2 added; HBS-P+ buffer, 25 °C.

The subject of assay [10] is Dm-HS-5 (DNA, aptamer, HFNAP: side-chain on 5' nucleobase of each coding trinucleotide, positions 19,22,25,...,61 (codon key Figure 1B)) GAAAGCAGGACTGGAGATCGATTCTGGTGCTGTTGATCTCCGCCATTGTGCTCCTGCCCTTCACAGACCGAACTAGAGCTT
The conditions noted are these: 5 mM KCl, 1 mM MgCl2, 1 mM CaCl2 added; HBS-P+ buffer, 25 °C.

Assay [11] relates to Dm-CCS-3 (DNA, aptamer, HFNAP: side-chain on 5' nucleobase of each coding trinucleotide, positions 19,22,25,...,61 (codon key Figure 1B)) GAAAGCAGGACTGGAGATTTACATCCCCTCCAGTCGTGCCCCCTACCTTGCTGCTCGTCATGGCAGACCGAACTAGAGCTT
The conditions noted are these: 5 mM KCl, 1 mM MgCl2, 1 mM CaCl2 added; HBS-P+ buffer, 25 °C.

The subject of assay [12] is Dm-LS-1 (DNA, aptamer, HFNAP: side-chain on 5' nucleobase of each coding trinucleotide, positions 19,22,25,...,61 (codon key Figure 1B)) GAAAGCAGGACTGGAGATCCGCGCCGCTTTTATCCCTAGTCCCTTTTACCCTACTTCCCCTTACAGACCGAACTAGAGCTT
The conditions noted are these: 5 mM KCl, 1 mM MgCl2, 1 mM CaCl2 added; HBS-P+ buffer, 25 °C.

The test system of assay [13] is Dm-HS-5 ∆ s.c. (DNA, aptamer, none (no side-chains)) GAAAGCAGGACTGGAGATCGATTCTGGTGCTGTTGATCTCCGCCATTGTGCTCCTGCCCTTCACAGACCGAACTAGAGCTT
The settings on record: 5 mM KCl, 1 mM MgCl2, 1 mM CaCl2 added; HBS-P+ buffer, 25 °C.

In assay [14] the test system is Dm-CVAE-without-selection-1 (DNA, aptamer, HFNAP: side-chain on 5' nucleobase of each coding trinucleotide, positions 19,22,25,...,61 (codon key Figure 1B)) GAAAGCAGGACTGGAGATCCGCATCGCTTATGCTGATCTTTTCCATATTGCCTTTCCTCCTACCAGACCGAACTAGAGCTT
The conditions noted are these: 5 mM KCl, 1 mM MgCl2, 1 mM CaCl2 added; HBS-P+ buffer, 25 °C.

On to `COc1cccc2c1C(=O)c1c(O)c3c(c(O)c1C2=O)C[C@@](O)(C(C)=O)C[C@@H]3O[C@H]1C[C@H](N)[C@H](O)[C@H](C)O1`, for which the dissociation constant Kd – broadly, the constant that tells how readily two partners part at equilibrium – amounted to 10.4 ± 1.5 nM in [1]; 12.9 ± 1.5 nM in assay [2]; 8.5 ± 2.3 nM in assay [3]; 2.05 ± 0.65 nM in assay [4]; 29.9 ± 10.2 nM in assay [5]; 2230 ± 100 nM in assay [6]. The Kd in [7] was found to be 20.3 ± 4.4 nM; in assay [8], 10.1 ± 1.6 nM; in [9] it was 15.5 ± 1.3 nM; in [10], 6.16 ± 3.4 nM; in assay [11] it was 26.4 ± 6.9 nM; in assay [12], 1110 ± 60 nM. The compound also had a Kd in [14] of 13.2 ± 3.2 nM. Besides, the “Kd ∆ side-chains” value in [13] stood at 4500 ± 210 nM.
